Measured values published in US10899738B2 (THE REGENTS OF THE UNIVERSITY OF MICHIGAN, priority 2016, dated 2021).
Read-outs that look alike come from different tables or passages of the source.

Legend:
menin protein = menin protein (Homo sapiens (Human), UniProt O00255); assay: biochemical; assay type: binding; conditions: FP competitive binding; menin protein 4 nM, FAM-MM2 probe 2 nM; read-out: Menin Binding Affinity IC50
How it was run: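 Test compounds displaced FAM-MM2 (2 nM) from 4 nM menin after 30 min equilibration at room temperature in PBS buffer containing bovine γ-globulin, 4% DMSO and Triton X-100. Binding was followed by fluorescence polarization. Competition curves were fitted by nonlinear regression to give IC50 and Ki.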

[1] = Cell growth inhibition, CellTiter-Glo Luminescent Cell Viability Assay; assay type: cell-based; conditions: 4 days, CellTiter-Glo
How it was run: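 Cells seeded at 2,000/well with serially diluted compound and cultured 4 days at 37 °C, 5% CO2. Viability read by CellTiter-Glo luminescence; IC50 derived from dose-response.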

[2] = MOLM-13, 96 h, MOLM13 cells, read-out: Cell Growth Inhibition IC50 (μM) MOLM13
[3] = MV4-11, 96 h, MV4, 11 cells, read-out: Cell Growth Inhibition IC50 (μM) MV4, 11

Sequence of menin protein (O00255 whole entry): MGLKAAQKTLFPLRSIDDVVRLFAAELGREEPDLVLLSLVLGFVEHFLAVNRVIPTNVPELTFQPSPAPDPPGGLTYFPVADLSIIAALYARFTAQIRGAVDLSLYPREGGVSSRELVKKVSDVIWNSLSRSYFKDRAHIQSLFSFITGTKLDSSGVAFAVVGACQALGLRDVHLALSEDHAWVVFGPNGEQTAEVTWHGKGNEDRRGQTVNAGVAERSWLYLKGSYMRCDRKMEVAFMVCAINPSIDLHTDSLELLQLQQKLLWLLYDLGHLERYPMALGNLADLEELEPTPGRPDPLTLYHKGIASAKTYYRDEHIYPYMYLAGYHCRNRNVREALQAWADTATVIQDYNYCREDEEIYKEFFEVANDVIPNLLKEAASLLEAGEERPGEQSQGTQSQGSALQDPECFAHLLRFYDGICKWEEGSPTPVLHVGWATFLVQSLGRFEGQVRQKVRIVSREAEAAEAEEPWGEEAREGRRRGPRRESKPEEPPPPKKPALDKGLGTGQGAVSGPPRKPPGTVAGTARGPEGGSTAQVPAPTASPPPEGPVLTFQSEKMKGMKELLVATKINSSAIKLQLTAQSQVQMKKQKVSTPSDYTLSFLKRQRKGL

## CNS(=O)(=O)c1ccc(N2CC(CN3CCC(C4(C5CCCC5)NCCc5c(F)cccc54)CC3)C2)cc1 (stereo not drawn) [compound 119, 4-(3-((4-(1-cyclopentyl-5-fluoro-1,2,3,4-tetrahydroisoquinolin-1-yl)piperidin-1-yl)methyl)azetidin-1-yl)-N-methylbenzenesulfonamide]
Menin protein
  IC50: 15 nM
[1]; [2]
  IC50: 1.3 µM
[1]; [3]
  IC50: 1.8 µM

## CCS(=O)(=O)c1ccc(N2CC(CN3CCC(C4(C5CCCC5)NCCc5ccccc54)CC3)C2)cc1 (stereo not drawn) [compound 133, 1-cyclopentyl-1-(1-((1-(4-(ethylsulfonyl)phenyl)azetidin-3-yl)methyl)piperidin-4-yl)-1,2,3,4-tetrahydroisoquinoline]
Menin protein
  IC50: 30 nM
[1]; [2]
  IC50: 2.9 ± 0.8 µM
[1]; [3]
  IC50: 1.7 ± 1 µM

## CC(C)S(=O)(=O)c1ccc(N2CC(CN3CCC(C4(C5CCCC5)NCCc5ccccc54)CC3)C2)cc1 (stereo not drawn) [compound 134, 1-cyclopentyl-1-(1-((1-(4-(isopropylsulfonyl)phenyl)azetidin-3-yl)methyl)piperidin-4-yl)-1,2,3,4-tetrahydroisoquinoline]
Menin protein
  IC50: 67 nM
[1]; [2]
  IC50: 3.8 µM
[1]; [3]
  IC50: 1.1 µM

## O=S(=O)(c1ccc(N2CC(CN3CCC(C4(C5CCCC5)NCCc5ccccc54)CC3)C2)cc1)C1CC1 (stereo not drawn) [compound 135, 1-cyclopentyl-1-(1-((1-(4-(cyclopropylsulfonyl)phenyl)azetidin-3-yl)methyl)piperidin-4-yl)-1,2,3,4-tetrahydroisoquinoline]
Menin protein
  IC50: 25 nM
[1]; [2]
  IC50: 2.1 ± 1 µM
[1]; [3]
  IC50: 1.3 ± 0.4 µM

## CCN1Cc2ccccc2C(C2CCCC2)(C2CCN(CC3CN(c4ccc(S(=O)(=O)CC)cc4)C3)CC2)C1 (stereo not drawn) [compound 136, 4-cyclopentyl-2-ethyl-4-(1-((1-(4-(ethylsulfonyl)phenyl)azetidin-3-yl)methyl)piperidin-4-yl)-1,2,3,4-tetrahydroisoquinoline]
Menin protein
  IC50: 9 nM
[1]; [2]
  IC50: 3.8 µM
[1]; [3]
  IC50: 1.2 µM

## CCN1Cc2ccccc2C(C2CCCC2)(C2CCN(CC3CN(c4ccc(S(=O)(=O)C5CC5)cc4)C3)CC2)C1 (stereo not drawn) [compound 137, 4-cyclopentyl-4-(1-((1-(4-(cyclopropylsulfonyl)phenyl)azetidin-3-yl)methyl)piperidin-4-yl)-2-ethyl-1,2,3,4-tetrahydroisoquinoline]
Menin protein
  IC50: 8 nM
[1]; [2]
  IC50: 1.9 ± 0.7 µM
[1]; [3]
  IC50: 1 ± 0.2 µM

## CCN1Cc2ccccc2C(C2CCCC2)(C2CCN(CC3(F)CN(c4ccc(S(=O)(=O)C5CC5)cc4)C3)CC2)C1 (stereo not drawn) [compound 141, 4-cyclopentyl-4-(1-((1-(4-(cyclopropylsulfonyl)phenyl)-3-fluoroazetidin-3-yl)methyl)piperidin-4-yl)-2-ethyl-1,2,3,4-tetrahy36droisoquinoline]
Menin protein
  IC50: 28 nM
[1]; [2]
  IC50: 54.7 µM
[1]; [3]
  IC50: 4.7 µM

## CCN1Cc2ccccc2C(C2CCCC2)(C2CCN(CC3CN(c4ccc(S(=O)(=O)C5CCCC5)cc4)C3)CC2)C1 (stereo not drawn) [compound 142, 4-cyclopentyl-4-(1-((1-(4-(cyclopentylsulfonyl)phenyl)azetidin-3-yl)methyl)piperidin-4-yl)-2-ethyl-1,2,3,4-tetrahydroisoquinoline]
Menin protein
  IC50: 8 nM
[1]; [2]
  IC50: 3.2 ± 0.3 µM
[1]; [3]
  IC50: 0.979 ± 0.335 µM

## CCN1Cc2ccccc2C(C2CCCC2)(C2CCN(CC3CN(c4ccc(S(=O)(=O)CC5CC5)cc4)C3)CC2)C1 (stereo not drawn) [compound 143, 4-cyclopentyl-4-(1-((1-(4-((cyclopropylmethyl)sulfonyl)phenyl)azetidin-3-yl)methyl)piperidin-4-yl)-2-ethyl-1,2,3,4-tetrahydroisoquinoline]
Menin protein
  IC50: 28 nM
[1]; [2]
  IC50: 3.4 ± 0.5 µM
[1]; [3]
  IC50: 1.2 ± 1 µM

## CCN1Cc2ccccc2C(C2CCCC2)(C2CCN(CC3CN(c4ccc(S(=O)(=O)C5CC5)cc4Cl)C3)CC2)C1 (stereo not drawn) [compound 144, 4-(1-((1-(2-chloro-4-(cyclopropylsulfonyl)phenyl)azetidin-3-yl)methyl)piperidin-4-yl)-4-cyclopentyl-2-ethyl-1,2,3,4-tetrahydroisoquinoline]
Menin protein
  IC50: 23 nM
[1]; [2]
  IC50: 4 ± 0.7 µM
[1]; [3]
  IC50: 1.6 ± 1.1 µM

## CCN1Cc2ccccc2C(C2CCCC2)(C2CCN(CC3CN(c4ccc(S(=O)(=O)C(F)(F)F)cc4)C3)CC2)C1 (stereo not drawn) [compound 145, 4-cyclopentyl-2-ethyl-4-(1-((1-(4-((trifluoromethyl)sulfonyl)phenyl)azetidin-3-yl)methyl)piperidin-4-yl)-1,2,3,4-tetrahydroisoquinoline]
Menin protein
  IC50: 15 nM
[1]; [2]
  IC50: 3.3 ± 0.5 µM
[1]; [3]
  IC50: 1.6 ± 0.8 µM

## O=S(=O)(c1ccc(N2CC(CN3CCC(C4(C5CCCC5)NCCc5ccccc54)CC3)C2)cc1)C1CCCC1 (stereo not drawn) [compound 146, 1-cyclopentyl-1-(1-((1-(4-(cyclopentylsulfonyl)phenyl)azetidin-3-yl)methyl)piperidin-4-yl)-1,2,3,4-tetrahydroisoquinoline]
Menin protein
  IC50: 13 nM
[1]; [2]
  IC50: 1.9 ± 1.2 µM
[1]; [3]
  IC50: 0.785 ± 0.247 µM

## CCN1Cc2ccccc2C(C2CCCC2)(C2CCN(CC3CN(c4ccc(S(=O)(=O)c5ccccc5)cc4)C3)CC2)C1 (stereo not drawn) [compound 147, 4-cyclopentyl-2-ethyl-4-(1-((1-(4-(phenylsulfonyl)phenyl)azetidin-3-yl)methyl)piperidin-4-yl)-1,2,3,4-tetrahydroisoquinoline]
Menin protein
  IC50: 9 nM
[1]; [2]
  IC50: 1.6 ± 0.8 µM
[1]; [3]
  IC50: 0.956 ± 0.727 µM

## O=S(=O)(c1ccccc1)c1ccc(N2CC(CN3CCC(C4(C5CCCC5)NCCc5ccccc54)CC3)C2)cc1 (stereo not drawn) [compound 149, 1-cyclopentyl-1-(1-((1-(4-(phenylsulfonyl)phenyl)azetidin-3-yl)methyl)piperidin-4-yl)-1,2,3,4-tetrahydroisoquinoline]
Menin protein
  IC50: 12 nM
[1]; [2]
  IC50: 0.331 µM
[1]; [3]
  IC50: 0.493 µM

## O=S(=O)(c1ccncc1)c1ccc(N2CC(CN3CCC(C4(C5CCCC5)NCCc5ccccc54)CC3)C2)cc1 (stereo not drawn) [compound 151, 1-cyclopentyl-1-(1-((1-(4-(pyridin-4-ylsulfonyl)phenyl)azetidin-3-yl)methyl)piperidin-4-yl)-1,2,3,4-tetrahydroisoquinoline]
Menin protein
  IC50: 15 nM
[1]; [2]
  IC50: 0.627 µM
[1]; [3]
  IC50: 1.3 µM

## CCN1Cc2ccccc2C(C2CCCC2)(C2CCN(CC3CN(c4ccc(S(=O)(=O)c5cccnc5)cc4)C3)CC2)C1 (stereo not drawn) [compound 152, 4-cyclopentyl-2-ethyl-4-(1-((1-(4-(pyridin-3-ylsulfonyl)phenyl)azetidin-3-yl)methyl)piperidin-4-yl)-1,2,3,4-tetrahydroisoquinoline]
Menin protein
  IC50: 9 nM
[1]; [2]
  IC50: 0.49 µM
[1]; [3]
  IC50: 0.46 µM

## CCN1Cc2ccccc2C(C2CCCC2)(C2CCN(CC3CN(c4ccc(S(=O)(=O)c5ccncc5C)cc4)C3)CC2)C1 (stereo not drawn) [compound 153, 4-cyclopentyl-2-ethyl-4-(1-((1-(4-((3-methylpyridin-4-yl)sulfonyl)phenyl)azetidin-3-yl)methyl)piperidin-4-yl)-1,2,3,4-tetrahydroisoquinoline]
Menin protein
  IC50: 7 nM
[1]; [2]
  IC50: 0.77 µM
[1]; [3]
  IC50: 0.79 µM

## CCc1cnccc1S(=O)(=O)c1ccc(N2CC(CN3CCC(C4(C5CCCC5)CN(CC)Cc5ccccc54)CC3)C2)cc1 (stereo not drawn) [compound 156, 4-cyclopentyl-2-ethyl-4-(1-((1-(4-((3-ethylpyridin-4-yl)sulfonyl)phenyl)azetidin-3-yl)methyl)piperidin-4-yl)-1,2,3,4-tetrahydroisoquinoline]
Menin protein
  IC50: 8 nM
[1]; [2]
  IC50: 1.8 µM
[1]; [3]
  IC50: 0.654 µM
